Test results published in patent US7723070B2, “Overexpression of aminoacyl-tRNA synthetases for efficient production of engineered proteins containing amino acid analogues” (California Institute of Technology, priority 2000, dated 2010).
Like-named read-outs stand apart in the source and are kept apart here.

Experiments:
[1] = test system: B834(DE3)/pQE15/pREP4; assay: Translational activity: mDHFR synthesis in control host; assay type: cell-based, E. coli
Source text: (§1) Plasmid DNA from all B834(DE3)/pQE15-MRS/pREP4 cultures used for protein expression experiments was sequenced to confirm that it encoded wild-type MetRS. […] The expression plasmid also encodes an N-terminal hexahistidine sequence for mDHFR which permits purification of the target protein by immobilized metal chelate affinity chromatography (The Qiagen Expressionist, 1992, p. 45). Furthermore, mDHFR contains 8 methionine residues which can be replaced by methionine analogues. A control bacterial host, which produces only mDHFR and normal cellular levels of MetRS, was prepared by transforming B834(DE3) with pREP4 and pQE15.
Methionine analogues were synthesized via alkylation of diethylacetamidomalonate, as previously described (As described in Example I, infra; J. C. M. van Hest, D. A. Tirrell, FEBS Lett. 1998, 428, 68-70). […]
Cells were washed three times with M9 salts and resuspended to an optical density of 0.90 in M9 test media containing 19 amino acids plus 1) neither methionine nor analogue (negative control); 2) methionine (60 mg/liter, positive control); or 3) an analogue of interest (60 mg/liter). […] Expression of mDHFR was induced by addition of 0.4 mM isopropyl β-D-thiogalactopyranoside (IPTG), and protein synthesis was monitored after 4.5 hours.

[2] = test system: B834(DE3)/pQE15-MRS/pREP4; assay type: cell-based, E. coli
Source text: A gene encoding a mutant MetRS was removed from plasmid pBSM547W305F (D. Fourmy, Y. Mechulam, S. Brunie, S. Blanquet, G. Fayat, FEBS Lett. 1991, 292, 259-263) by treatment with restriction enzymes Sac I and Kpn I. The Sac I/Kpn I fragment (2450 bp) was ligated into the cloning vector pUC19-Nhelink, which was constructed to permit the cohesive ends of the mutant MetRS gene to be changed to Nhe I. The MetRS gene with Nhe I cohesive ends was then ligated into the unique Nhe I site of the plasmid pQE15 (Qiagen, Inc., Santa Clarita, Calif., USA) to yield plasmid pQE15-W305F (FIG. 20) (SEQ ID NO.: 2).
as §1
(§2) Methionine analogues were synthesized via alkylation of diethylacetamidomalonate, as previously described (As described in Example I, infra; J. C. M. van Hest, D. A. Tirrell, FEBS Lett. 1998, 428, 68-70). Cultures of B834(DE3)/pQE15-MRS/pREP4 or B834(DE3)/pQE15/pREP4 or CAG18491/pQE15-MRS/pREP4 or CAG18491/pQE15/pREP4 in M9AA media were grown to an optical density of 0.90, and the cells were sedimented by centrifugation. The M9AA medium was prepared by supplementing sterile M9 medium with […] of each of the amino acids, 1 mM MgSO4, 0.2 wt % glucose, 1 mg/ml thiamine chloride, and […] calcium chloride. The antibiotics ampicillin and kanamycin were added at concentrations of 200 mg/l and 35 mg/l, respectively.
(§3) Cells were washed three times with M9 salts and resuspended to an optical density of 0.90 in M9 test media containing 19 amino acids plus 1) neither methionine nor analogue (negative control); 2) methionine (60 mg/liter, positive control); or 3) an analogue of interest (60 mg/liter). To test the effect of increasing the level of supplementation of the analogues, a set of experiments was also conducted in which the medium was supplemented with 500 mg/liter of methionine or the amino acid analogue. Expression of mDHFR was induced by addition of 0.4 mM isopropyl β-D-thiogalactopyranoside (IPTG), and protein synthesis was monitored after 4.5 hours.

[3] = test system: B834(DE3) or CAG18491 hosts with pQE15/pREP4 or pQE15-MRS/pREP4; assay: Translational activity: mDHFR synthesis, statements covering several bacterial hosts (with pQE15 or pQE15-MRS); assay type: cell-based, E. coli; settings: for translational activity / incorporation in hosts with increased MetRS activity: hosts overproducing MetRS; for target protein mDHFR in SDS-PAGE: amino acids at 60 mg/liter, both bacterial hosts
Protocol: as §2, §3

[4] = test system: CAG18491/pQE15-MRS/pREP4; assay type: cell-based, E. coli; settings: for level of protein synthesis in modified host over conventional host (Western blot, laser densitometry): 5-ml cultures, versus CAG18491/pQE15/pREP4; for yield of mDHFR from large-scale cultures: preliminary results
Protocol: Similarly, a bacterial host capable of overexpressing MetRS was produced by transforming E. coli strains CAG18491 (Novagen, Inc., Madison, Wis., USA), a methionine auxotroph, with repressor plasmid pREP4 and expression plasmid pQE15-MRS, as described for the B834(DE3) strain. A control bacterial host, which produces only mDHFR and normal cellular levels of MetRS, was prepared by transforming CAG18491 with pREP4 and pQE15.
as §2, §3
Buffers and media were prepared according to standard protocols (Ausubel, F. M.; Brent, R.; Kingston, R. E.; Moore, D. D.; Seidman, J. G.; Smith, J. A.; Struhl, K., Eds. Current Protocols in Molecular Biology; John Wiley and Sons: New York, 1998). The E. coli methionine auxotroph CAG18491 (λ^−, rph-1, metE3079.:Tn10) was transformed with plasmids pQE15 and pREP4 (Qiagen), to obtain the expression host CAG18491/pQE15/pREP4. […] Both bacterial expression hosts produce the target protein mDHFR under control of a bacteriophage T5 promoter; the modified host also expresses extra copies of the MetRS gene under control of the constitutive metG p1 promoter (Dardel, F.; Panvert, M.; Fayat, G. Mol. Gen. Genet. 1990, 223, 121.133).
M9AA medium (100 mL) supplemented with 1 mM MgSO4 0.2 wt % glucose, 1 mg/L thiamine chloride and the antibiotics ampicillin (200 mg/L) and kanamycin (35 mg/L) was inoculated with the appropriate E. coli strain (CAG18491/pQE15/pREP4 or CAG18491/pQE15-MRS/pREP4) and grown overnight at 37° C. This culture was used to inoculate 900 mL M9AA medium supplemented as described. The cells were grown to an optical density at 600 nm (OD600) of approximately 0.9 and a medium shift was performed. The cells were sedimented for 10 min at 3030 g at 4° C., the supernatant was removed, and the cell pellet was washed twice with 600 mL of M9 medium. Cells were resuspended in 1000 mL of the M9AA medium described above, without methionine, and supplemented with 20 mg/L of the L-isomer of either 1, 2, 3, or 9. Protein synthesis was induced by addition of isopropyl-β-D-thiogalactopyranoside (IPTG) to a final concentration of 0.4 mM. Samples (1 mL) were collected after 4.5 hours, the OD600 measured, and cells resuspended with distilled water to yield a normalized OD600 of 20.

[5] = test system: E. coli strain CAG18491/pQE15/pREP4; assay: Translational activity: mDHFR synthesis in methionine-depleted cultures of conventional host; assay type: cell-based; settings: analogue in place of methionine at the time of inoculation

Compound | translational activity / incorporation in hosts with increased MetRS activity [3] | mDHFR expression (SDS-PAGE) ([4]; 500 mg/liter) | target protein mDHFR in SDS-PAGE [3] | level of protein synthesis in modified host over conventional host (Western blot, laser densitometry) [4] | also measured
C/C=C/CC(N)C(=O)O (racemic) [Analogue 5, trans-2-amino-4-hexenoic acid] | permits incorporation | – | – | – | mDHFR expression (SDS-PAGE) ([1]; 60 mg/L): not detected; incorporation of the analogue at the initiator position (N-terminal sequencing) [2]: 96±2%; mDHFR produced relative to cultures supplemented with methionine [2]: 23%; overall extent of incorporation of the analogue (amino acid analysis) [2]: 91±2%; replacement of methionine (integration of NMR spectrum) [2]: 90±6%; mDHFR expression (SDS-PAGE) ([2]; 60 mg/L): strong induction of mDHFR; methionine content by amino acid analysis ([2]; expected value 3.8 mol %): 0.3 mol %
CCC[C@H](N)C(=O)O [Analogue 8, L-norvaline] | permits incorporation | able to produce the target protein | not observed | – | –
CSCC[C@H](N)C(=O)O [Analogue 1, L-methionine, reference compound] | – | – | detected | does not exhibit higher levels of protein synthesis | Protein yields ([1]; supplemented cultures): approximately 35 mg/liter; Protein yields ([2]; supplemented cultures): approximately 35 mg/liter
C#CCCC(N)C(=O)O (racemic) [Analogue 3, DL-homopropargylglycine] | – | – | detected | does not exhibit higher levels of protein synthesis | growth of cultures in minimal media with methionine replaced by analogue at inoculation [5]: did not grow
2-butynylglycine [Analogue 11] | permits incorporation | – | – | – | mDHFR expression (SDS-PAGE) ([4]; 60 mg/L): strong induction of mDHFR
CCCCCC(N)C(=O)O (racemic) [Analogue 7, DL-2-aminoheptanoic acid] | permits incorporation | able to produce the target protein | not observed | – | –
CCCC[C@H](N)C(=O)O [Analogue 9, L-norleucine] | – | – | detected | approximately 1.4 fold | yield of mDHFR from large-scale cultures [4]: approximately 35 mg/L
C/C=C\CC(N)C(=O)O (racemic) [Analogue 4, cis-2-amino-4-hexenoic acid] | permits incorporation | able to produce the target protein | not observed | – | –
C=CCCC(N)C(=O)O (racemic) [Analogue 2, DL-2-amino-5-hexenoic acid] | – | – | detected | approximately 1.5 fold | yield of mDHFR from large-scale cultures [4]: approximately 35 mg/L; growth of cultures in minimal media with methionine replaced by analogue at inoculation [5]: did not grow
C=CCC(N)C(=O)O (stereo not drawn) [Analogue 12, allylglycine] | permits incorporation | able to produce the target protein | not observed | – | –
